Test results taken from the supplement of paper PMC10307832.

Compound: COC1=C(C=C(C=C1)C2=CC3=NC=CN3C(=N2)NC4=C(C=CC=N4)C(=O)N)OC [BAY61-3606] + CS(=O)(=O)CCNCc1ccc(-c2ccc3ncnc(Nc4ccc(OCc5cccc(F)c5)c(Cl)c4)c3c2)o1 [Lapatinib] (partner 2 µM)
Test: relative viability (nuclei count vs DMSO), 5 days (fraction); higher = more cells survive
Conditions: first compound 0.02 µM
Method in brief: (§1)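 For relative viability, nuclei counts in treated wells were divided by those in vehicle wells. Lung cancer cell lines had been pin-tool dosed in 1536-well plates the day after seeding and cultured for 5 days, then fixed and stained in one step (final 0.05% Triton X-100, 1% formaldehyde, 1 ug/ml Hoechst) and imaged at 4×. Doses were one drug alone or a fixed anchor-drug dose plus five library-drug doses (not always all listed) in √10 steps, and values are duplicate-plate medians.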

| Cell Line | relative viability |
| --- | --- |
| RERF-LC-KJ | 0.935 |
| NCI-H1651 | 0.979 |
| EBC-1 | 0.218 |
| NCI-H1734 | 0.991 |
| NCI-H2009 | 1 |
| NCI-H596 | 1.09 |
| SK-LU-1 | 0.953 |
| SW 1573 | 1.18 |
| LCLC-97TM1 | 1.23 |
| NCI-H661 | 0.575 |
| NCI-H2228 | 1.34 |
| EMC-BAC-2 | 0.882 |
| NCI-H2087 | 0.747 |
| Calu-6 | 1.09 |
| HCC-44 | 1.02 |
| NCI-H1703 | 1.55 |

| Cell Line | relative viability |
| --- | --- |
| NCI-H727 | 0.701 |
| LK-2 | 0.922 |
| NCI-H2126 | 0.83 |
| NCI-H1793 | 0.479 |
| H3255 | 0.257 |
| COR-L23 | 0.872 |
| COR-L 105 | 0.355 |
| LC-2-ad | 1.02 |
| LU99A | 0.97 |
| IA-LM | 0.92 |
| A549 | 1.09 |
| NCI-H1395 | 1.13 |
| NCI-H1299 | 0.945 |
| NCI-H1650 | 0.862 |
| NCI-H2170 | 0.236 |

Same assay, conditions: first compound 0.06325 µM

| Cell Line | relative viability |
| --- | --- |
| RERF-LC-KJ | 0.741 |
| NCI-H1651 | 0.863 |
| EBC-1 | 0.228 |
| NCI-H1734 | 1.07 |
| NCI-H2009 | 0.971 |
| NCI-H596 | 1.02 |
| SK-LU-1 | 0.81 |
| SW 1573 | 1.01 |
| NCI-H661 | 0.534 |
| NCI-H2228 | 1.01 |
| EMC-BAC-2 | 0.969 |
| NCI-H2087 | 1.08 |
| Calu-6 | 1.23 |
| HCC-44 | 1.02 |
| NCI-H1703 | 1.2 |
| NCI-H727 | 0.742 |
| LK-2 | 0.777 |
| NCI-H2126 | 0.724 |
| NCI-H1793 | 0.775 |
| H3255 | 0.203 |
| COR-L23 | 1.08 |
| COR-L 105 | 0.378 |
| LC-2-ad | 0.97 |
| LU99A | 1.02 |
| IA-LM | 0.841 |
| A549 | 1.15 |
| NCI-H1395 | 1.08 |
| NCI-H1299 | 0.98 |
| NCI-H1650 | 0.671 |
| NCI-H2170 | 0.272 |

Same assay, conditions: first compound 0.2 µM

| Cell Line | relative viability |
| --- | --- |
| RERF-LC-KJ | 0.859 |
| NCI-H1651 | 0.768 |
| EBC-1 | 0.181 |
| NCI-H1734 | 1 |
| NCI-H2009 | 0.937 |
| NCI-H596 | 1.14 |
| SK-LU-1 | 0.885 |
| SW 1573 | 1.08 |
| LCLC-97TM1 | 1.05 |
| NCI-H661 | 0.415 |
| NCI-H2228 | 1.27 |
| EMC-BAC-2 | 0.861 |
| NCI-H2087 | 0.994 |
| Calu-6 | 1.09 |
| HCC-44 | 1.02 |
| NCI-H1703 | 0.978 |
| NCI-H727 | 0.82 |
| LK-2 | 1.01 |
| NCI-H2126 | 0.745 |
| NCI-H1793 | 0.823 |
| H3255 | 0.274 |
| COR-L23 | 0.826 |
| COR-L 105 | 0.418 |
| LC-2-ad | 0.951 |
| LU99A | 0.909 |
| A549 | 1.05 |
| NCI-H1395 | 1.34 |
| NCI-H1299 | 0.97 |
| NCI-H1650 | 0.8 |
| NCI-H2170 | 0.257 |

Same assay, conditions: first compound 0.6325 µM

| Cell Line | relative viability |
| --- | --- |
| RERF-LC-KJ | 0.814 |
| NCI-H1651 | 0.826 |
| EBC-1 | 0.243 |
| NCI-H1734 | 1.14 |
| NCI-H2009 | 0.962 |
| NCI-H596 | 1.21 |
| SK-LU-1 | 0.862 |
| SW 1573 | 1.11 |
| LCLC-97TM1 | 1.05 |
| NCI-H661 | 0.541 |
| NCI-H2228 | 1 |
| EMC-BAC-2 | 1.11 |
| NCI-H2087 | 1.11 |
| Calu-6 | 1.02 |
| HCC-44 | 1.06 |
| NCI-H1703 | 1.02 |

| Cell Line | relative viability |
| --- | --- |
| NCI-H727 | 0.983 |
| LK-2 | 1.03 |
| NCI-H2126 | 0.794 |
| NCI-H1793 | 0.948 |
| H3255 | 0.249 |
| COR-L23 | 1.04 |
| COR-L 105 | 0.417 |
| LC-2-ad | 0.898 |
| LU99A | 0.976 |
| IA-LM | 0.981 |
| A549 | 0.953 |
| NCI-H1395 | 0.98 |
| NCI-H1299 | 0.963 |
| NCI-H1650 | 0.849 |
| NCI-H2170 | 0.262 |

Same assay, conditions: first compound 2 µM

| Cell Line | relative viability |
| --- | --- |
| RERF-LC-KJ | 0.709 |
| NCI-H1651 | 0.801 |
| EBC-1 | 0.244 |
| NCI-H1734 | 0.758 |
| NCI-H2009 | 0.861 |
| NCI-H596 | 1.04 |
| SK-LU-1 | 0.532 |
| SW 1573 | 0.858 |
| LCLC-97TM1 | 0.864 |
| NCI-H661 | 0.371 |
| NCI-H2228 | 0.894 |
| EMC-BAC-2 | 0.921 |
| NCI-H2087 | 1 |
| Calu-6 | 0.923 |
| HCC-44 | 1.21 |
| NCI-H1703 | 0.891 |

| Cell Line | relative viability |
| --- | --- |
| NCI-H727 | 0.753 |
| LK-2 | 0.935 |
| NCI-H2126 | 0.745 |
| NCI-H1793 | 0.796 |
| H3255 | 0.229 |
| COR-L23 | 0.834 |
| COR-L 105 | 0.351 |
| LC-2-ad | 0.979 |
| LU99A | 0.486 |
| IA-LM | 0.58 |
| A549 | 0.902 |
| NCI-H1395 | 0.973 |
| NCI-H1299 | 0.953 |
| NCI-H1650 | 0.517 |
| NCI-H2170 | 0.279 |

Compound: COC1=C(C=C(C=C1)C2=CC3=NC=CN3C(=N2)NC4=C(C=CC=N4)C(=O)N)OC [BAY61-3606] + C[C@]1(O)C[C@@H](c2nc(-c3ccc4ccc(-c5ccccc5)nc4c3)c3c(N)nccn32)C1 [Linsitinib] (partner 1 µM)
Test: as above
Conditions: first compound 0.02 µM
Method in brief: as §1

| Cell Line | relative viability |
| --- | --- |
| RERF-LC-KJ | 0.844 |
| NCI-H1651 | 0.908 |
| EBC-1 | 1.02 |
